Laboratory results reported in patent US20220409578A1, “FUNCTIONALIZED 1,3-BENZENE DIOLS AND THEIR METHOD OF USE FOR THE TREATMENT OF RADIATION DERMATITIS AND OTHER SKIN DISORDERS” (KANNALIFE SCIENCES, INC., priority 2019, published 2022).

How the values were obtained:
[1] = Antioxidant capacity (ABTS/metmyoglobin assay); format: biochemical; settings: OD 750 nm, 15 minutes after hydrogen peroxide
Method: Antioxidant capacity: The purpose of this study was to evaluate the overall antioxidant capacity of KLS-13022 for the ability to inhibit the oxidation of ABTS. (2,2′-Azino-di-[3-ethylbenzthiazoline sulphonate]) to ABTS.^+ by metmyoglobin. Ascorbic acid (Vitamin C) was used as positive antioxidant control in the assay. The testing involved the suppression of optical density (OD) at 750 nm to a degree, which is proportional to an effective oxidation inhibition. Neat solutions were prepared for materials formulated in HPLC-grade water (ascorbic acid) or 200-proof ethanol (KLS-13022). Serial dilutions were prepared for each material and mixed with metmyoglobin enzyme in assay buffer solution. All samples were compared to vehicle-only treated samples used as negative oxidation inhibition. Optical density changes at 750 nm were evaluated 15 minutes after addition of hydrogen peroxide to each sample. Average absorbance was calculated and plotted for each sample concentration. Effective antioxidant inhibition activity based on the change of absorbance of blank (vehicle-only) sample (no material added). […] The Antioxidant assay kit was obtained from Cayman Chemical Co. (Ann Arbor, Mich.). The assay consisted in the evaluation of the overall antioxidant capacity of test materials for the ability to inhibit the oxidation of ABTS. to ABTS.^+ by metmyoglobin. […]

[2] = system: human 3D cornea-like EPIOCULAR; experiment: Eye irritation, EPIOCULAR reconstructed cornea-like model, OECD 492 (MTT); format: cell-based; settings: KLS-13022 up to 3% w/v in 60:40 ethanol:water; OECD 492
Method: Ocular irritancy: The purpose of this study was to evaluate any potential ocular irritation activity of KLS-13022 formulations compared to vehicle-only treated tissues in vitro on human 3D cornea-like EPIOCULAR by topical application according to OECD 492 protocol. Test formulations of KLS-13022 up to 3% w/v in 60:40 ethanol:water vehicle were prepared fresh before use. EPIOCULAR tissues were acclimated before treatments for 24 hours and later treated topically for 30 minutes with KLS-13022 (0.01, 0.1, 0.3 1, 3% w/v). Methyl acetate was used as positive eye irritant control. Tissue viability levels were measured by MTT reduction assay method after material treatments. The levels of tissue viability after each material treatment was compared to vehicle control group to determine any potential ocular irritation activity.
Average levels of tissue viability were calculated for each treatment group. According to OECD 492 protocol, predicted positive eye irritation activities were determined when obtaining <60% tissue viability. […] Primary cornea-like inserts were used from human origin and purchased from MatTek (Ashland, Mass.). […] Tissues were cultured with standard conditions (37° C., 95% v/v air, 5% v/v CO2) and acclimated for 18+3 hours before dosing procedures.

IL-8 = IL-8 release, nickel-induced allergy in human dermal microvascular endothelial cells (ELISA); format: cell-based; settings: Homo sapiens, Endothelial cell; co-treatment with NiSO4, HDMECs; read-out: IC50 of IL-8 inhibition
Method: Dermal Microvascular endothelial cells of human origin were cultured in vitro using standard conditions (37° C., 95% v/v air, 5% v/v CO2). Human cells were selected as relevant to cell types within skin tissues for this development program. Cell culture methods are commonly used in non-clinical studies conducted on pharmaceutical products. […] Cells were cultured until the third and fourth passage and then acclimated for 24 hours before Nickel induction and dosing procedures. Cell treatment groups were identified using appropriate 96-well plates. The test and control articles were administered to medium containing 1 mM NiSO4 in triplicates. The negative control group received vehicle-only (0.1% v/v final) dose. A fixed 0.1 μL/well from 1000× stock dose volume was administered to 100 μL of media to each cell culture well on Day 2 and incubated for 6 hours at 37 degrees. These cell cultures were also utilized to determine the concentrations of test agent that were non-toxic after 24 hours of incubation.
Assay for Interleukin-8: Test material was applied in vitro for the ability to inhibit pro-inflammatory (IL-8) cytokine secretion by cultured HDMECs co-treated with Nickel (NiSO4). Clobetasol propionate was tested as positive control material for anti-inflammatory activity. The pro-inflammatory cytokine (IL-8) was quantified by enzyme-linked immunosorbent assay (ELISA) after inflammatory induction and incubation with test and control materials. Interleukin-8 levels in cell culture medium are markers of inflammation signaling by endothelial cells present in skin microvascular tissue in response to irritation. Interleukin-8 (IL-8) levels were assessed using BD Biosciences OptEIA™ Human IL-8 ELISA Set kit (Cat. No. 555244) and Reagent Set B (Cat. No. 550534) according to the manufacture's specifications. Absorbance was measured at 450 nm using plate reader and interleukin-8 levels were calculated from a standard curve.

O=C1O[C@H]([C@@H](O)CO)C(O)=C1O [ascorbic acid, reference compound]
EC50 [1]: 39.7 µM

COC(C)=O [methyl acetate, Methyl acetate, reference compound]
ocular irritancy potential [2]: strong eye irritant

CCC(=O)O[C@]1(C(=O)CCl)[C@@H](C)C[C@H]2[C@@H]3CCC4=CC(=O)C=C[C@]4(C)[C@@]3(F)[C@@H](O)C[C@@]21C [Clobetasol propionate, reference compound]
IC50 (IL-8): ~0.5 µM
